From PubChem BioAssay (NCI)
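Briefly, cells in 96-well plates were exposed to five compound concentrations for 48 h, and endpoints were estimated by linear interpolation. Here, GI50 denotes the concentration required for 50% inhibition of growth. TGI denotes the concentration required for complete inhibition of growth.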

Assays:
Test in all cases: NCI-60 cell line screen, 48 h
[1] = system: UACC-62 melanoma
[2] = system: HCC-2998 colon
[3] = system: MCF7 breast
[4] = system: NCI-H226 lung
[5] = system: IGROV1 ovarian
[6] = system: SNB-19 CNS
[7] = system: HCT-15 colon
[8] = system: SNB-75 CNS
[9] = system: SK-OV-3 ovarian
[10] = system: HS 578T breast
[11] = system: CCRF-CEM leukemia
[12] = system: T-47D breast
[13] = system: COLO 205 colon
[14] = system: OVCAR-8 ovarian
[15] = system: SK-MEL-28 melanoma
[16] = system: SN12C renal
[17] = system: ACHN renal
[18] = system: OVCAR-5 ovarian
[19] = system: MALME-3M melanoma
[20] = system: EKVX NSCLC
[21] = system: A498 renal
[22] = system: UO-31 renal
[23] = system: DU-145 prostate
[24] = system: LOX IMVI melanoma
[25] = system: KM12 colon
[26] = system: RXF 393 renal
[27] = system: NCI-H522 lung
[28] = system: HOP-62 NSCLC
[29] = system: UACC-257 melanoma
[30] = system: MOLT-4 leukemia
[31] = system: NCI/ADR-RES ovarian
[32] = system: NCI-H23 lung
[33] = system: SK-MEL-5 melanoma
[34] = system: MDA-MB-231 breast
[35] = system: SF-295 CNS
[36] = system: PC-3 prostate
[37] = system: BT-549 breast
[38] = system: TK-10 renal
[39] = system: SW-620 colon
[40] = system: NCI-H460 lung
[41] = system: CAKI-1 renal
[42] = system: A549 NSCLC
[43] = system: HL-60(TB) leukemia
[44] = system: SK-MEL-2 melanoma
[45] = system: RPMI-8226 leukemia
[46] = system: HOP-92 NSCLC
[47] = system: OVCAR-3 ovarian
[48] = system: HCT-116 colon
[49] = system: OVCAR-4 ovarian
[50] = system: SF-539 CNS
[51] = system: SF-268 CNS
[52] = system: M14 melanoma
[53] = system: U251 CNS
[54] = system: MDA-MB-435
[55] = system: 786-0 renal
[56] = system: HT29 colon
[57] = system: K-562 leukemia

CC1(C)CCC2(CC1)N[C@@H](C(=O)N[C@@H]1CC[C@@H](C(N)=O)OC1)[C@H](c1ccnc(Cl)c1F)[C@]21C(=O)Nc2cc(Cl)ccc21 was tested, and the GI50 [1] was 55.6 nM, the TGI [1] was 2050 nM and the GI50 [2] was 1700 nM. The TGI [2] was 3210 nM, the GI50 [3] was 37 nM and the TGI [3] was 2280 nM. For the same compound, the GI50 [4] was 93.5 nM, the TGI [4] was 804 nM and the GI50 [5] was 793 nM. It also gave a TGI [5] of 6130 nM, a GI50 [6] of 3380 nM and a TGI [6] of 15200 nM. It also gave a GI50 [7] of 2880 nM, a TGI [7] of 10100 nM and a GI50 [8] of 2170 nM. The TGI [8] was 9380 nM, the GI50 [9] was 3000 nM and the TGI [9] was 9270 nM. The GI50 [10] was 2330 nM, the TGI [10] was 10400 nM and the GI50 [11] was 3010 nM. The TGI [11] was 13300 nM, the GI50 [12] was 2580 nM and the TGI [12] was 7850 nM. It also gave a GI50 [13] of 2110 nM, a TGI [13] of 5390 nM and a GI50 [14] of 3920 nM. The TGI [14] was 27700 nM, the GI50 [15] was 1950 nM and the TGI [15] was 4060 nM. For the same compound, the GI50 [16] was 3130 nM, the TGI [16] was 12000 nM and the GI50 [17] was 139 nM. For the same compound, the TGI [17] was 2280 nM, the GI50 [18] was 2150 nM and the TGI [18] was 5900 nM. It also gave a GI50 [19] of 48.2 nM, a TGI [19] of 2030 nM and a GI50 [20] of 2380 nM. For the same compound, the TGI [20] was 7600 nM, the GI50 [21] was 111 nM and the TGI [21] was 3950 nM. The GI50 [22] was 261 nM, the TGI [22] was 3040 nM and the GI50 [23] was 3940 nM. For the same compound, the TGI [23] was 16100 nM, the GI50 [24] was 124 nM and the TGI [24] was 2000 nM. For the same compound, the GI50 [25] was 2390 nM, the TGI [25] was 6230 nM and the GI50 [26] was 2260 nM. For the same compound, the TGI [26] was 5670 nM, the GI50 [27] was 2010 nM and the TGI [27] was 4460 nM. For the same compound, the GI50 [28] was 2310 nM, the TGI [28] was 7830 nM and the GI50 [29] was 190 nM. The TGI [29] was 2530 nM, the GI50 [30] was 107 nM and the TGI [30] was 3130 nM. It also gave a GI50 [31] of 16300 nM, a TGI [31] of 45500 nM and a GI50 [32] of 3730 nM. It also gave a TGI [32] of 15400 nM, a GI50 [33] of 743 nM and a TGI [33] of 2170 nM. The GI50 [34] was 1920 nM, the TGI [34] was 3980 nM and the GI50 [35] was 2140 nM. For the same compound, the TGI [35] was 5040 nM, the GI50 [36] was 2260 nM and the TGI [36] was 6250 nM. For the same compound, the GI50 [37] was 2450 nM, the TGI [37] was 7520 nM and the GI50 [38] was 3130 nM. It also gave a TGI [38] of 15700 nM, a GI50 [39] of 3810 nM and a TGI [39] of 23100 nM. It also gave a GI50 [40] of 179 nM, a TGI [40] of 2050 nM and a GI50 [41] of 62.2 nM. It also gave a TGI [41] of 4150 nM, a GI50 [42] of 260 nM and a TGI [42] of 13100 nM. The GI50 [43] was 2360 nM, the TGI [43] was 5590 nM and the GI50 [44] was 2160 nM. It also gave a TGI [44] of 5020 nM, a GI50 [45] of 2120 nM and a TGI [45] of 5570 nM. The GI50 [46] was 1780 nM, the TGI [46] was 4790 nM and the GI50 [47] was 2750 nM. The TGI [47] was 8200 nM, the GI50 [48] was 70 nM and the TGI [48] was 6960 nM. It also gave a GI50 [49] of 3190 nM, a TGI [49] of 14100 nM and a GI50 [50] of 1930 nM. For the same compound, the TGI [50] was 4660 nM, the GI50 [51] was 3500 nM and the TGI [51] was 19100 nM. For the same compound, the GI50 [52] was 2140 nM, the TGI [52] was 5630 nM and the GI50 [53] was 2800 nM. The TGI [53] was 9640 nM, the GI50 [54] was 2440 nM and the TGI [54] was 6220 nM. It also gave a GI50 [55] of 2770 nM, a TGI [55] of 8510 nM and a GI50 [56] of 2220 nM. For the same compound, the TGI [56] was 6010 nM.

With N#Cc1c(-c2ccc(Cl)cc2)csc1NC(=O)Nc1ccc(Cl)c(C(F)(F)F)c1 the GI50 [1] was 326 nM, the TGI [1] was 8640 nM and the GI50 [2] was 1330 nM. For the same compound, the TGI [2] was 17100 nM, the GI50 [3] was 229 nM and the TGI [3] was 11100 nM. The GI50 [4] was 1120 nM, the TGI [4] was 12400 nM and the GI50 [5] was 626 nM. The TGI [5] was 18700 nM, the GI50 [6] was 1270 nM and the TGI [6] was 35200 nM. For the same compound, the GI50 [7] was 208 nM, the TGI [7] was 5400 nM and the GI50 [8] was 1360 nM. It also gave a TGI [8] of 7720 nM, a GI50 [9] of 2490 nM and a TGI [9] of 14400 nM. The GI50 [10] was 1360 nM, the TGI [10] was 8240 nM and the GI50 [11] was 243 nM. It also gave a TGI [11] of 7670 nM, a GI50 [12] of 106 nM and a TGI [12] of 696 nM. It also gave a GI50 [13] of 895 nM, a TGI [13] of 2580 nM and a GI50 [14] of 388 nM. For the same compound, the TGI [14] was 15700 nM, the GI50 [15] was 1850 nM and the TGI [15] was 40100 nM. For the same compound, the GI50 [16] was 348 nM, the TGI [16] was greater than 50000 nM and the GI50 [17] was 234 nM. The TGI [17] was 5180 nM, the GI50 [18] was 4770 nM and the TGI [18] was greater than 50000 nM. For the same compound, the GI50 [19] was 1010 nM, the TGI [19] was 3940 nM and the GI50 [20] was 385 nM. The TGI [20] was greater than 50000 nM, the GI50 [21] was 536 nM and the TGI [21] was 5680 nM. For the same compound, the GI50 [22] was 1470 nM, the TGI [22] was greater than 50000 nM and the GI50 [23] was 527 nM. It also gave a TGI [23] of 11200 nM, a GI50 [24] of 1140 nM and a TGI [24] of 7380 nM. For the same compound, the GI50 [25] was 251 nM, the TGI [25] was 6960 nM and the GI50 [26] was 2050 nM. For the same compound, the TGI [26] was 17400 nM, the GI50 [27] was 121 nM and the TGI [27] was 550 nM. It also gave a GI50 [28] of 1010 nM, a TGI [28] of 4420 nM and a GI50 [30] of 605 nM. It also gave a TGI [30] of 5060 nM, a GI50 [31] of 536 nM and a TGI [31] of 13400 nM. It also gave a GI50 [32] of 201 nM, a TGI [32] of 16700 nM and a GI50 [33] of 639 nM. It also gave a TGI [33] of 3700 nM, a GI50 [34] of 995 nM and a TGI [34] of 6240 nM. For the same compound, the GI50 [35] was 326 nM, the TGI [35] was 1870 nM and the GI50 [36] was 161 nM. For the same compound, the TGI [36] was 2040 nM, the GI50 [37] was 1210 nM and the TGI [37] was 4540 nM. For the same compound, the GI50 [38] was 757 nM, the TGI [38] was 11100 nM and the GI50 [39] was 255 nM. For the same compound, the TGI [39] was 2950 nM, the GI50 [40] was 209 nM and the TGI [40] was 1200 nM. It also gave a GI50 [41] of 691 nM, a TGI [41] of 5570 nM and a GI50 [57] of 177 nM. For the same compound, the TGI [57] was 6270 nM, the GI50 [42] was 630 nM and the TGI [42] was 12400 nM. It also gave a GI50 [43] of 793 nM, a TGI [43] of 2110 nM and a GI50 [44] of 872 nM. It also gave a TGI [44] of 7350 nM, a GI50 [45] of 153 nM and a TGI [45] of 1140 nM. The GI50 [46] was 222 nM, the TGI [46] was 2090 nM and the GI50 [47] was 262 nM. For the same compound, the TGI [47] was 1470 nM, the GI50 [48] was 224 nM and the TGI [48] was 6420 nM. The GI50 [49] was 691 nM, the TGI [49] was 3460 nM and the GI50 [50] was 1500 nM. The TGI [50] was 6960 nM, the GI50 [51] was 1290 nM and the TGI [51] was 21300 nM. For the same compound, the GI50 [52] was 1140 nM, the TGI [52] was 8350 nM and the GI50 [53] was 607 nM. It also gave a TGI [53] of 1910 nM, a GI50 [54] of 1490 nM and a TGI [54] greater than 50000 nM. For the same compound, the GI50 [55] was 3180 nM, the TGI [55] was 13400 nM and the GI50 [56] was 560 nM. It also gave a TGI [56] of 3540 nM.
